Patent publication US8021831B2, “Taxane chemosensitivity prediction test” (Board of Regents, The University of Texas System, priority 2003, dated 2011)

Tests used:
[1] = test system: microtubule site; settings: higher than paclitaxel, same microtubule site; cited from earlier work
[2] = test system: MCF-7 cells; assay: Cell death analysis (trypan blue exclusion); format: cell-based, human; settings: MCF-7 control cells, paclitaxel 100 nM, 48 hr
Description: FIG. 2B—MCF-7 cells transfected with siRNA/Mad2, BubR1, or both were examined for cell death induced by paclitaxel. Twenty-four hr after transfection, cells were treated with paclitaxel (100 nM) for 48 hr. Cell viability was assessed using trypan blue exclusion assay.
Cell death analysis. Cell death was evaluated using the trypan blue dye exclusion assay. Briefly, cells were harvested using trypsin and stained with 0.4% trypan blue dye (Sigma-Aldrich Chemical Co., St. Louis, Mo.). Trypan blue-positive and -negative cells were counted using a hemacytometer (Hausser Scientific, Horsham, Pa.) under a phase-contrast microscope (Fisher Scientific, Pittsburgh, Pa.). The results of each assay were expressed in terms of the percentage of dead cells relative to the total number of cells. Individual experiments were performed in triplicate.
Next, to determine whether these resistances were due to the reduction of cell death induced by paclitaxel, the inventors assessed the population of cell death using trypan blue exclusion.

[3] = test system: resistant tumor (tumor of T47D); assay: Tumor volume in tumor-bearing nude mice, resistant tumor; format: in vivo; settings: 20 mg paclitaxel per day i.p., Days 34-38, until day 43
Description: (§1) FIG. 7. The susceptible and resistant cells (1×10^7 cells/mouse) were inoculated into nude mice. When the tumor volume reached more than 300 mm^3, 20 mg of Paclitaxel per day was intraperitoneally administered on five consecutive days (Days 34-38 after the inoculations). The tumor size was recorded on Days 20-43. […] By contrast, the volume of resistant tumor remained at 350 mm^3 until Day 43.
(§2) To further confirm the above in vitro results, an in vivo validation study was performed. The susceptible and resistant cells were inoculated into nude mice. When the tumor volume reached more than 300 mm^3, 20 mg of paclitaxel per day was intraperitoneally administered on five consecutive days (Days 34-38 after the inoculations). The tumor size was recorded on days 20-43. […] By contrast, volume of resistant tumors remained at 350 mm^3 until day 43.
as §1, with “The” for “FIG. 7. The”, “of paclitaxel” for “of Paclitaxel”, “on days” for “on Days”, “until day 43 (FIG. 7).” for “until Day 43.”

[4] = test system: MDA-MB435; assay: Paclitaxel cytotoxicity test (MTT assay); format: cell-based, human; settings: 1, 5, 10, 50 or 100 nM paclitaxel, 72 hr
Description: (§3) FIG. 5. Sensitivities of cell lines to Paclitaxel were judged according to a graph analysis of the Paclitaxel cytotoxicity test. […] The Paclitaxel cytotoxicity test was performed as follows. The cells were cultivated in wells of a 96-well culture plate in presence of 1, 5, 10, 50 or 100 nM Paclitaxel. After 72 hr cultivation, cell survival was measured by the MTT assay.
(§4) Drug sensitivity assays. Cells were detached by trypsinization, seeded at 2.0×10^3 cells/well in a 96-well microtiter plate, and treated with various concentrations of paclitaxel (1, 5, 10, 50, 100 and 1000 nM). Seventy-two hr later, the effects on cell growth were examined by 3-(4,5-dimethylthiazol-2-yl)-2,5-diphenyl tetrazolium bromide (MTT) assay: 20 μl of MTT solution (5 mg/ml in phosphate-buffered saline; Sigma Aldrich) was added to each well, and the cells were incubated for 4 hr at 37° C. The MTT-formazan formed by metabolically viable cells was dissolved in 100 μl of cell lysis buffer, and […] was monitored using a microplate at a wavelength of 570 nm. The percentage of cell growth was calculated by defining the absorption of cells not treated with paclitaxel (control) as 100%.
(§5) Sensitivities of four human breast cancer cell lines to paclitaxel were judged according to a graph analysis of the paclitaxel cytotoxicity test (FIG. 5). […] The paclitaxel cytotoxicity test was performed as follows. The cells were cultivated in wells of a 96-well culture plate in presence of 1, 5, 10, 50 or 100 nM paclitaxel. After 72 hr cultivation, cell survival was measured by the MTT assay.

[5] = test system: T47D; assay: Paclitaxel cytotoxicity test (MTT assay); format: cell-based, human; settings: 1, 5, 10, 50 or 100 nM paclitaxel, 72 hr
Description: as §3, §4, §5

[6] = test system: MCF-7; assay: Paclitaxel cytotoxicity test (MTT assay); format: cell-based, human; settings: 1, 5, 10, 50 or 100 nM paclitaxel, 72 hr
Description: as §3, §4, §5

[7] = test system: MDA-MB231; assay: Paclitaxel cytotoxicity test (MTT assay); format: cell-based, human; settings: 1, 5, 10, 50 or 100 nM paclitaxel, 72 hr
Description: as §3, §4, §5

[8] = test system: susceptible tumor (tumor of MDA-MB231); assay: Tumor volume in tumor-bearing nude mice, susceptible tumor; format: in vivo; settings: 20 mg paclitaxel per day i.p.
Description: as §1, §2
as §1, with “The” for “FIG. 7. The”, “of paclitaxel” for “of Paclitaxel”, “on days” for “on Days”, “until day 43 (FIG. 7).” for “until Day 43.”

[9] = test system: previously treated metastatic breast cancer; settings: previously treated metastatic breast cancer patients; cited from earlier work
[10] = test system: advanced drug refractory ovarian cancer; settings: advanced drug refractory ovarian cancer patients; cited from earlier work
[11] = test system: CDK1 in tumor of MDA-MB231; assay: Cell cycle profiling of tumor tissue lysates, CDK1 specific activity; format: in vivo, nude mice; settings: 24 hr after treatment
Description: (§6) FIG. 8. Lysates of the tumor tissues from tumor-bearing mice were subjected to cell cycle profiling. […] These are (A1) CDK1 specific activity 24 hr after treatment; (A2) CDK2 specific activity before treatment; (E5) MAD2 expression before treatment; (E3) Cyclin E expression before treatment; (E4) p21 expression before treatment; and (E1) CDK6 expression before treatment. The value plotted in the graph was calculated by dividing with the bigger raw value between two tumors on the each parameter.
(§7) Enzyme activity analyses of cell cycle profiling. Enzyme activity analyses of cell cycle profiling were performed using a non-radioisotopic method. Cell lysates were prepared as described for expression analysis. […] After three washes with washing buffer (0.1% NP-40, 50 mM Tris-Cl [pH 7.4]), 50 μl of the substrate mixture containing 10 μg of protein substrate, 5 mM adenosine 5′-O-(3-thiotriphosphate) (Sigma), 20 mM Tris-Cl (pH 7.4), and 0.1% Triton X-100 was added to the beads and incubated under continuous shaking at 37° C. for 10 min. Histone H1 (Upstate Biotechnology, Lake Placid, N.Y., USA) was used as the protein substrate for CDK1 and CDK2, and recombinant RB protein (amino acids 769-921) for CDK4 and CDK6. After the beads were removed, the introduced monothiophosphates in the substrate were further labeled by incubation with 10 mM iodoacetyl-biotin (Pierce) in coupling buffer (100 mM Tris-Cl [pH 8.5], 1 mM EDTA) for 90 min in the dark at room temperature. The reaction was quenched with β-mercaptoethanol, and 0.4 μg of the substrate was applied to the wells of the dot-blot device. The wells were blocked with 4% bovine serum albumin (BSA) for 30 min, then incubated with avidin-FITC (Vector) for 1 hr at 37° C.

[12] = test system: CDK1 in tumor of T47D; assay: as above; format: in vivo, nude mice; settings: 24 hr after treatment
Description: as §6, §7

[13] = test system: MCF-7 cells; assay: Mitotic indices after paclitaxel treatment; format: cell-based, human; settings: MCF-7 control (siRNA/control) cells; paclitaxel 100 nM; 24 hr after treatment
Description: FIG. 1C—Mitotic indices of each cell after treatment with paclitaxel. Twenty-four hr after transfection, cells were treated with paclitaxel (100 nM) and harvested at the indicated times.
Calculation of mitotic indices. Cells with mitotic condensed chromatin were visualized by staining with 10 μM Hoechst 33342 dye (Aventis Pharmaceuticals Inc., Bridgewater, N.J.) in conjunction with 10 μg/ml propidium iodide; the propidium iodide was incorporated into dead cells only. […] The cells were harvested at 12, 24, and 36 hr after transfection and the mitotic indices calculated.
(§8) To test the effects of suppression of Mad2, BubR1, or both on the spindle assembly checkpoint activated by paclitaxel, the mitotic indices were determined and the Cdk1 activity measured, both of which reflect the status of this checkpoint.

[14] = test system: various lung cancers; settings: patients; cited from earlier work
[15] = test system: Cdk1 activity in MCF-7 cells; assay: Cdk1 kinase assay after paclitaxel treatment; format: cell-based, human; settings: MCF-7 control cells; paclitaxel 100 nM; 24 hr after treatment
Description: Twenty-four hr after transfection, cells were treated with paclitaxel (100 nM) and harvested at the indicated times. FIG. 1D—Cyclin-dependent kinase-1 (Cdk1) activity after treatment with paclitaxel in each cell. Twenty-four hr after transfection, cells were treated with paclitaxel (100 nM) and harvested at the indicated times. Activity of Cdk1 in the lysates was determined as described in Experimental procedures.
Cdk1 kinase assay. The Cdk1 protein kinase assay was performed using the SignaTECT cdc2 protein assay system (Promega, Madison, Wis.). Briefly, the harvested cells were lysed with the extraction buffer (50 mM Tris [pH 7.4], 150 mM NaCl, 0.1% Triton X-100, and 1 mM EDTA) containing protease inhibitors (100 μg/ml aprotinin and 0.5 mM phenylmethane sulphonyl fluoride) and phosphatase inhibitors (50 mM NaF). These lysates were conjugated with a substrate consisting of cdc2-specific biotinylated peptide derived from histone H1 and [γ-^32P] ATP, and incubated at 30° C. for 10 min. […] After several washings, each captured membrane was placed into a separate vial and analyzed using a liquid scintillation counter (Beckman Coulter, Palo Alto, Calif.).
as §8

Row | SMILES | affinity for the microtubule site relative to paclitaxel [1] [fold] | levels of cell death [2] | tumor volume remained at [3] [mm^3] | Sensitivity of cell line to paclitaxel (judged by graph analysis of cytotoxicity test) [4] | Sensitivity of cell line to paclitaxel (judged by graph analysis of cytotoxicity test) [5] | Sensitivity of cell line to paclitaxel (judged by graph analysis of cytotoxicity test) [6] | Sensitivity of cell line to paclitaxel (judged by graph analysis of cytotoxicity test) [7] | tumor volume before decrease (start value) ([8]; Days 34-38) [mm^3] | tumor volume after decrease (end value) ([8]; Days 34-38, recorded to day 43) [mm^3] | Response rate [9] | Response rate [10] | CDK1 specific activity (A1), divided by the bigger raw value [11] | CDK1 specific activity (A1), raw value [11] | CDK1 specific activity (A1), divided by the bigger raw value [12] | CDK1 specific activity (A1), raw value [12] | control cells arrested at mitosis [13] | Response rate [14] | Cdk1 activity [15]
1 | CC(=O)O[C@@]12CO[C@@H]1C[C@H](O)[C@@]1(C)C(=O)[C@H](O)C3=C(C)[C@@H](OC(=O)[C@H](O)[C@@H](NC(=O)OC(C)(C)C)c4ccccc4)C[C@@](O)([C@@H](OC(=O)c4ccccc4)[C@H]21)C3(C)C [docetaxel, (2R,3S)-N-carboxy-3-phenylisoserine, N-tert-butyl ester, 13-ester with 5b-20-epoxy-12a,4,7b,10b,13a-hexahydroxytax-11-en-9-one 4-acetate 2-benzoate, trihydrate] | 1.9 |  |  |  |  |  |  |  |  |  |  |  |  |  |  |  |  | 
2 | CC(=O)O[C@H]1C(=O)[C@@]2(C)[C@H]([C@H](OC(=O)c3ccccc3)[C@]3(O)C[C@H](OC(=O)[C@H](O)[C@@H](NC(=O)c4ccccc4)c4ccccc4)C(C)=C1C3(C)C)[C@]1(OC(C)=O)CO[C@@H]1C[C@@H]2O [paclitaxel] |  | high | 350 | susceptible | resistant | resistant | susceptible | 460 | 120 | 27-62% | 19-36% | 1.0 | 3.0 mU/ng of CDK1 | 0.067 | 0.2 mU/ng of CDK1 | at least 80% | 21-37% | dramatic increase
